pIC50: −log10 of the molar value.
Key:
[1] = target: T1, Protein arginine N-methyltransferase 1 (Homo sapiens, UniProt Q99873); assay: Inhibition of GST-fused human recombinant PRMT1 after 90 mins by SDS-PAGE based scintillation counting
Target sequence in this assay (Q99873 whole entry, the tested form may be a part): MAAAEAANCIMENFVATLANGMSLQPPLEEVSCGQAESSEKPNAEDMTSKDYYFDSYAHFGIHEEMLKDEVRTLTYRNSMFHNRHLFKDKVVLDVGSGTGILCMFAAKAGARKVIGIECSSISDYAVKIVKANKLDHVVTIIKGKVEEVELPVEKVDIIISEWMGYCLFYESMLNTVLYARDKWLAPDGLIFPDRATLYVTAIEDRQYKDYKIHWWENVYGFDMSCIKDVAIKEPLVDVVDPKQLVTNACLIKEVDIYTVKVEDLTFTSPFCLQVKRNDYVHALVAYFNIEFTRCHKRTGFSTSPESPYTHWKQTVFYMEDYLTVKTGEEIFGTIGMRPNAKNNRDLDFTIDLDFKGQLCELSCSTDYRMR

[2] = target: T2, Histone-lysine N-methyltransferase SETD7 (Homo sapiens) (UniProt Q8WTS6); assay: Inhibition of GST-fused human recombinant SET7 at 100 uM after 90 mins by SDS-PAGE based scintillation counting
T2 sequence (whole entry): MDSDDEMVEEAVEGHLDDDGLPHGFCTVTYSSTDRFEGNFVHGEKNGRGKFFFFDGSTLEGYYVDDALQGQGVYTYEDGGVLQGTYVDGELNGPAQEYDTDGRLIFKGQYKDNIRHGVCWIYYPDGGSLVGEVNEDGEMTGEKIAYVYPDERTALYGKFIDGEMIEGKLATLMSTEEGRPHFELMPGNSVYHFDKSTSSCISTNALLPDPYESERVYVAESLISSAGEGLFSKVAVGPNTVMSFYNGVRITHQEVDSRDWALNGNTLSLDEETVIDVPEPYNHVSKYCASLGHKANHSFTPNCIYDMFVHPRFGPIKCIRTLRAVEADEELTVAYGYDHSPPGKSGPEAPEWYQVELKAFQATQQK

[3] = target: T1, Protein arginine N-methyltransferase 1; assay: Inhibition of GST-fused human recombinant PRMT1 at 100 uM after 90 mins by SDS-PAGE based scintillation counting
Target sequence in this assay (Q99873 whole entry, looked up, the tested form may be a part): as the sequence (Q99873 whole entry, the tested form may be a part) above

[4] = target: T3, Histone-lysine N-methyltransferase SETD7 (Homo sapiens, UniProt Q8WTS6); assay: Inhibition of GST-fused human recombinant SET7 after 90 mins by SDS-PAGE based scintillation counting
T3 sequence (Q8WTS6 whole entry): T2 sequence (whole entry)

| pIC50 [1] | inhibition [2] [%] | inhibition [3] [%] | Structure (SMILES) | pIC50 [4] |
| --- | --- | --- | --- | --- |
| 5.54 | 49 | – | N=C(N)NCCCCN(CC[C@H](N)C(=O)O)C[C@H]1O[C@@H](n2cnc3c(N)ncnc32)[C@H](O)[C@@H]1O | – |
| 5.21 | 56.5 | – | N=C(N)NCCCN(CC[C@H](N)C(=O)O)C[C@H]1O[C@@H](n2cnc3c(N)ncnc32)[C@H](O)[C@@H]1O | – |

The next lines start with the compound.

| Structure (SMILES) | pIC50 [1] | inhibition [2] [%] | inhibition [3] [%] | pIC50 [4] |
| --- | --- | --- | --- | --- |
| C#CCN(CC[C@H](NC(=O)OC(C)(C)C)C(=O)OC(C)(C)C)C[C@H]1O[C@@H](n2cnc3c(N)ncnc32)[C@@H]2OC(C)(C)O[C@@H]21 | – | 63 | 77 | – |
| Nc1ncnc2c1ncn2[C@@H]1O[C@H](C[C@@H](N)CC[C@H](N)C(=O)O)[C@@H](O)[C@H]1O [SINEFUNGIN] | – | – | – | 5.60 |
| N=C(N)NCCCCCN(CC[C@H](N)C(=O)O)C[C@H]1O[C@@H](n2cnc3c(N)ncnc32)[C@H](O)[C@@H]1O | – | 55 | – | – |
| C#CCN(CC[C@H](N)C(=O)O)C[C@H]1O[C@@H](n2cnc3c(N)ncnc32)[C@H](O)[C@@H]1O | – | 75 | 50 | – |
| N=C(N)NCCn1cc(CN(CC[C@H](N)C(=O)O)C[C@H]2O[C@@H](n3cnc4c(N)ncnc43)[C@H](O)[C@@H]2O)nn1 | – | > 50 | > 50 | – |

— ChEMBL document CHEMBL1156943, “Toward the development of potent and selective bisubstrate inhibitors of protein arginine methyltransferases” (Bioorg Med Chem Lett, 2010)
